The text below walks through data of ChEMBL document CHEMBL3608288, “Novel Chalcone-Thiazole Hybrids as Potent Inhibitors of Drug Resistant Staphylococcus aureus” (ACS Med Chem Lett, 2015).

Converted amounts (≈) assume the structure as drawn. Bounds are passed on as bounds.

One data set relates to Candida albicans. Kind of data set: Antifungal activity against Candida albicans after 16 hrs by microtiter broth dilution method. The data set is classed as functional. Background: In broth dilution the organism is exposed to a series of concentrations in liquid medium.
A further data set deals with Escherichia coli. Kind of data set: Antibacterial activity against Escherichia coli ATCC 9637 after 16 hrs by microtiter broth dilution method. The data set is classed as functional. Particulars: W.
The test system of a further data set is Cryptococcus neoformans. Put plainly: Antifungal activity against Cryptococcus neoformans after 16 hrs by microtiter broth dilution method. The data set is classed as functional.
A further data set concerns Klebsiella pneumoniae. Kind of data set: Antibacterial activity against Klebsiella pneumoniae ATCC 27736 after 16 hrs by microtiter broth dilution method. The data set is classed as functional. As to conditions: ATCC 27736, 16 h.
The test system of data set [1] is Staphylococcus aureus. Kind of data set: Antibacterial activity against […] Staphylococcus aureus ATCC 29213 after 16 hrs by microtiter broth dilution method. It counts as functional. Particulars: ATCC 29213, 16 h.
Data set [2] can be described thus: Hemolytic activity in human RBC at 100 ug/ml after 1 hr. As to conditions: erythrocyte.
A further data set deals with Pseudomonas aeruginosa. Put plainly: Antibacterial activity against Pseudomonas aeruginosa ATCC BAA-427 after 16 hrs by microtiter broth dilution method. It counts as functional. As to conditions: ATCC BAA-427, 16 h.
In a further data set the test system is Candida parapsilosis. Kind of data set: Antifungal activity against Candida parapsilosis ATCC 22019 after 16 hrs by microtiter broth dilution method. As to conditions: Lodderomyces parapsilosis, ATCC 22019, 16 h. The data set is classed as functional.
The subject of a further data set is Sporothrix schenckii. Put plainly: Antifungal activity against Sporothrix schenckii after 16 hrs by microtiter broth dilution method. It counts as functional.
Data set [3] concerns Staphylococcus aureus. Put plainly: Antibacterial activity against Staphylococcus aureus ATCC 25923 after 16 hrs by microtiter broth dilution method. The data set is classed as functional. As to conditions: ATCC 25923, 16 h.
In data set [4] the test system is Staphylococcus aureus. Put plainly: Antibacterial activity against methicillin/gentamicin-resistant Staphylococcus aureus ATCC 33592 after 16 hrs by microtiter broth dilution method. It counts as functional. Particulars: ATCC 33592, 16 h.
The test system of another data set is Aspergillus fumigatus. Put plainly: Antifungal activity against Aspergillus fumigatus after 16 hrs by microtiter broth dilution method. It counts as functional.
The subject of data set [5] is Staphylococcus aureus. Kind of data set: Antibacterial activity against methicillin-resistant Staphylococcus aureus ATCC 700699 after 16 hrs by microtiter broth dilution method. It counts as functional. As to conditions: ATCC 700699, 16 h.
Data set [6] deals with Trichophyton mentagrophytes. Kind of data set: Antifungal activity against Trichophyton mentagrophytes after 16 hrs by microtiter broth dilution method. The data set is classed as functional.

Usually MIC stands for the lowest concentration that inhibits growth of the organism. Higher therefore signals a less susceptible organism. Consider `CCCc1cc(/C=C/C(=O)c2ccco2)cc(/C=N/c2nc(C(=O)OCC)cs2)c1O`, for which the MIC is above 102 µM against Candida albicans; above 102 µM against Escherichia coli; above 102 µM with Cryptococcus neoformans; above 102 µM in the data set with Klebsiella pneumoniae; 51.2 µM (≈ 22.5 µg/mL) with Staphylococcus aureus [1]; above 102 µM in the data set on Pseudomonas aeruginosa. The MIC in the data set on Candida parapsilosis is above 102 µM; against Sporothrix schenckii, above 102 µM; with Staphylococcus aureus [3] it was 51.2 µM (≈ 22.5 µg/mL); against Staphylococcus aureus [4] it was 51.2 µM (≈ 22.5 µg/mL); against Aspergillus fumigatus it was above 102 µM; with Staphylococcus aureus [5], 51.2 µM (≈ 22.5 µg/mL). The minimum inhibitory concentration (MIC) in [6] is above 102 µM. In [2], the Activity entry is given as “Non-toxic”.
In the case of `COc1ccc(C(=O)/C=C/c2cc(/C=N/c3nc(-c4ccc(OC)c(OC)c4)cs3)c(O)c(C(C)(C)C)c2)cc1`, the MIC with Candida albicans was above 89.8 µM; against Escherichia coli it was above 89.8 µM; in the data set on Cryptococcus neoformans, above 89.8 µM; against Klebsiella pneumoniae, above 89.8 µM; in the data set on Staphylococcus aureus [1] it was 11.2 µM (≈ 6.23 µg/mL); with Pseudomonas aeruginosa it was above 89.8 µM. The minimal inhibitory concentration (MIC) is above 89.8 µM against Candida parapsilosis; above 89.8 µM in the data set on Sporothrix schenckii; 11.2 µM (≈ 6.23 µg/mL) with Staphylococcus aureus [3]; 5.6 µM (≈ 3.12 µg/mL) against Staphylococcus aureus [4]; above 89.8 µM with Aspergillus fumigatus; 11.2 µM (≈ 6.23 µg/mL) against Staphylococcus aureus [5]. In data set [6], the minimal inhibitory concentration (MIC) was above 89.8 µM. Further, the Activity result in [2] is recorded as “Non-toxic”.
With `COc1ccc(C(=O)/C=C/c2cc(/C=N/c3nc(-c4ccc(OC)cc4)cs3)c(O)c(C(C)(C)C)c2)cc1`, the MIC in the data set with Candida albicans was above 94.9 µM; against Escherichia coli it was above 94.9 µM; against Cryptococcus neoformans, above 94.9 µM; in the data set on Klebsiella pneumoniae, above 94.9 µM; in the data set on Staphylococcus aureus [1], 11.9 µM (≈ 6.27 µg/mL); in the data set on Pseudomonas aeruginosa it was above 94.9 µM. Also, the MIC is above 94.9 µM in the data set with Candida parapsilosis; above 94.9 µM with Sporothrix schenckii; 11.9 µM (≈ 6.27 µg/mL) with Staphylococcus aureus [3]; 3 µM (≈ 1.58 µg/mL) with Staphylococcus aureus [4]; above 94.9 µM with Aspergillus fumigatus; 11.9 µM (≈ 6.27 µg/mL) in the data set with Staphylococcus aureus [5]. Further, the minimum inhibitory concentration (MIC) in [6] was above 94.9 µM. Moreover, the Activity result in [2] is “Non-toxic”.
For the compound `CCOC(=O)c1csc(/N=C/c2cc(/C=C/C(=O)c3cccs3)cc(C(C)C)c2O)n1`, the minimal inhibitory concentration (MIC) in the data set on Candida albicans was above 110 µM; in the data set on Escherichia coli, above 110 µM; against Cryptococcus neoformans, above 110 µM; against Klebsiella pneumoniae it was above 110 µM; in the data set on Staphylococcus aureus [1], 27.5 µM (≈ 12.5 µg/mL); against Pseudomonas aeruginosa, above 110 µM. Moreover, the MIC against Candida parapsilosis is above 110 µM; with Sporothrix schenckii it was above 110 µM; against Staphylococcus aureus [3] it was 27.5 µM (≈ 12.5 µg/mL); with Staphylococcus aureus [4], 13.7 µM (≈ 6.23 µg/mL); with Aspergillus fumigatus it was above 110 µM; in the data set on Staphylococcus aureus [5], 27.5 µM (≈ 12.5 µg/mL). The compound also yielded an MIC in data set [6] above 110 µM. In addition, the Activity entry in data set [2] is given as “Non-toxic”.
On to `COc1ccc(-c2csc(/N=C/c3cc(/C=C/C(=O)c4cccs4)cc(C(C)(C)C)c3O)n2)cc1OC`, for which the MIC was above 93.9 µM in the data set on Candida albicans; above 93.9 µM against Escherichia coli; above 93.9 µM with Cryptococcus neoformans; above 93.9 µM in the data set with Klebsiella pneumoniae; 11.7 µM (≈ 6.23 µg/mL) in the data set on Staphylococcus aureus [1]; above 93.9 µM in the data set with Pseudomonas aeruginosa. The MIC against Candida parapsilosis was above 93.9 µM; in the data set with Sporothrix schenckii it was above 93.9 µM; against Staphylococcus aureus [3], 23.5 µM (≈ 12.5 µg/mL); with Staphylococcus aureus [4], 11.7 µM (≈ 6.23 µg/mL); against Aspergillus fumigatus, above 93.9 µM; in the data set with Staphylococcus aureus [5], 11.7 µM (≈ 6.23 µg/mL). Besides, the MIC in [6] was above 93.9 µM. Besides, the Activity entry in [2] is reported as “Non-toxic”.
For `COc1ccc(-c2csc(/N=C/c3cc(/C=C/C(=O)c4ccc(C)cc4)cc(C(C)(C)C)c3O)n2)cc1`, the minimal inhibitory concentration (MIC) was above 97.9 µM against Candida albicans; above 97.9 µM against Escherichia coli; above 97.9 µM in the data set on Cryptococcus neoformans; above 97.9 µM in the data set on Klebsiella pneumoniae; 12.2 µM (≈ 6.23 µg/mL) with Staphylococcus aureus [1]; above 97.9 µM against Pseudomonas aeruginosa. Moreover, the MIC against Candida parapsilosis was above 97.9 µM; against Sporothrix schenckii, above 97.9 µM; in the data set on Staphylococcus aureus [3], 12.2 µM (≈ 6.23 µg/mL); with Staphylococcus aureus [4], 12.2 µM (≈ 6.23 µg/mL); with Aspergillus fumigatus, above 97.9 µM; against Staphylococcus aureus [5] it was 12.2 µM (≈ 6.23 µg/mL). This compound came in with a minimal inhibitory concentration (MIC) in data set [6] above 97.9 µM. In addition, in [2], the Activity entry is reported as “Non-toxic”.
Take `CCOC(=O)c1csc(/N=C/c2cc(/C=C/C(=O)c3cccs3)cc(C(C)(C)C)c2O)n1`: the MIC in the data set on Candida albicans was above 107 µM; in the data set with Escherichia coli it was above 107 µM; with Cryptococcus neoformans it was above 107 µM; in the data set on Klebsiella pneumoniae, above 107 µM; in the data set on Staphylococcus aureus [1], 6.7 µM (≈ 3.14 µg/mL); with Pseudomonas aeruginosa it was above 107 µM. Moreover, the MIC in the data set on Candida parapsilosis was above 107 µM; against Sporothrix schenckii, above 107 µM; in the data set on Staphylococcus aureus [3], 13.3 µM (≈ 6.23 µg/mL); against Staphylococcus aureus [4], 3.3 µM (≈ 1.55 µg/mL); against Aspergillus fumigatus, above 107 µM; against Staphylococcus aureus [5], 13.3 µM (≈ 6.23 µg/mL). The compound also gave an MIC in [6] above 107 µM. For the same compound, in data set [2], the Activity result is on record as “Non-toxic”.
